Where “and” joins values, the source holds several entries; their conditions need not be identical. Equal values may be shown once. One block for each molecule: values may come before it.
What was measured:
[1] = biological target: T1, Calf skin collagen Type I (Bos taurus, UniProt P02453+P02465); experiment: 3DG-induced collagen crosslinking, CNBr digestion and SDS-PAGE; format: biochemical; settings: 37° C., 24 hours
T1 construct: Calf skin collagen Type I (1.3 mg; Sigma); purchased Sigma; host or cells: calf skin
T1 sequence (P02453 162-1217 limits assumed): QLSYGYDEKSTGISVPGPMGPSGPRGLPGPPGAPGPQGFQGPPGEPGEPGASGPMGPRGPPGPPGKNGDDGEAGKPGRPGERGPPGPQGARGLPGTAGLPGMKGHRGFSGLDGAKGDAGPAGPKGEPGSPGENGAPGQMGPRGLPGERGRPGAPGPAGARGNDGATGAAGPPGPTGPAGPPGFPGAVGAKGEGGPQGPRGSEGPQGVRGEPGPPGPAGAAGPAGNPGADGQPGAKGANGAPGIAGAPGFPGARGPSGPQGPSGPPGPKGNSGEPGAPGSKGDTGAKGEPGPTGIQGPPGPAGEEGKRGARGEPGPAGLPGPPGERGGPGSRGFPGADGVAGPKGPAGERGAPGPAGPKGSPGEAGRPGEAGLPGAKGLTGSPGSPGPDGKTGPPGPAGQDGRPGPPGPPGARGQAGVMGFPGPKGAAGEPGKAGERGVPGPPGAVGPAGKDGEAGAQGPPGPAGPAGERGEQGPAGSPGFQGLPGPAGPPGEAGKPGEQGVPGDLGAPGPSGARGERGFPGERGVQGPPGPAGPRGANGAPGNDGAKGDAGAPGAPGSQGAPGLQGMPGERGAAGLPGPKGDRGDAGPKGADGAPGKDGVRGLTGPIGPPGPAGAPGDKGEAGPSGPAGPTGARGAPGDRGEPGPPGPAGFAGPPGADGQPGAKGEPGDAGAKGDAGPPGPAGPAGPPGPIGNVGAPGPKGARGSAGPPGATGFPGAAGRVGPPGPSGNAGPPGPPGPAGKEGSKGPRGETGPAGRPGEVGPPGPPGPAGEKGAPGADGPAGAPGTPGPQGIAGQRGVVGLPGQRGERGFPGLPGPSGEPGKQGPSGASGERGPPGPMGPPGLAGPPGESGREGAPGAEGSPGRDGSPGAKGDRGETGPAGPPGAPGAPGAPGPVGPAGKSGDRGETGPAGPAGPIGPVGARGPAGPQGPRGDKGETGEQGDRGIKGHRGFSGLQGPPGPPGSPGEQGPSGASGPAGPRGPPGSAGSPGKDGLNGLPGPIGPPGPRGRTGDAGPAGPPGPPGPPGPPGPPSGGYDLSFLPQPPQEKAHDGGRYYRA
T1 sequence (P02465 80-1117 limits assumed): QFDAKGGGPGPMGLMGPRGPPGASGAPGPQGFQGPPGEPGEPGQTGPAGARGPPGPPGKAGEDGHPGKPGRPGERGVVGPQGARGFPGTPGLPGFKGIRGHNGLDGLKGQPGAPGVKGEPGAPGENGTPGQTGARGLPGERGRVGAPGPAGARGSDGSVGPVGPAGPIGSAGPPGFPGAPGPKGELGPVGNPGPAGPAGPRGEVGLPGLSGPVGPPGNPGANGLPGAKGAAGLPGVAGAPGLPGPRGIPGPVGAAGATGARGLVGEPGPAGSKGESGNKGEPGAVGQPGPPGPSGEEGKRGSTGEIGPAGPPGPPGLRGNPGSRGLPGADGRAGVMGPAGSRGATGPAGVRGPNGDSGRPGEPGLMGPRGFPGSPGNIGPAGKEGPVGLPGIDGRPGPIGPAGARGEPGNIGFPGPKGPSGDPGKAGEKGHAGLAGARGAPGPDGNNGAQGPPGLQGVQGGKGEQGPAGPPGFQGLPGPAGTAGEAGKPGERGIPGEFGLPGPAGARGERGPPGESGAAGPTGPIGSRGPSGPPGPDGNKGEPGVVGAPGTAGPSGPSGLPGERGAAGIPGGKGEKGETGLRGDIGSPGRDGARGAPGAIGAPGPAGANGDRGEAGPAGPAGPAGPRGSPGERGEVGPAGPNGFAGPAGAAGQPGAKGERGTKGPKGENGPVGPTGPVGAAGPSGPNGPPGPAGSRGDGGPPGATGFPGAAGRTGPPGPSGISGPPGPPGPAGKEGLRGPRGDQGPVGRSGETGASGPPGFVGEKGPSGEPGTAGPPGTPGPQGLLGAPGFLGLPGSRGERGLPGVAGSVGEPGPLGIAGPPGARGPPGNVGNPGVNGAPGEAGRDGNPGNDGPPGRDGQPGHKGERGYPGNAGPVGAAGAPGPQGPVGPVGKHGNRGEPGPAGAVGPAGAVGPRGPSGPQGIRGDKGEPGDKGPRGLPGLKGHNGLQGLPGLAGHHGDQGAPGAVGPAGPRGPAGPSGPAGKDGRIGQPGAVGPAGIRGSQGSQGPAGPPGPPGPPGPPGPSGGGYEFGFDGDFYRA
Experimental: Collagen type I was treated with 3DG in the presence or absence of arginine. The samples were subjected to cyanogen bromide (CNBr) digestion, electrophoresed on a 16.5% SDS Tris-tricine gel, and then the gels were processed using silver stain techniques to visualize the proteins. Lane 1 contains molecular weight marker standards. Lanes 2 and 5 contain 10 and 20 μl of the collagen mixture following CNBr digestion. Lanes 3 and 6 contain the collagen mixture treated with 3DG and then digested with CNBr, and loaded at 10 and 20 μl, respectively. Lanes 4 and 7 contain the mixture of collagen incubated with 5 mM 3DG and 10 mM arginine and then digested with CNBr, and loaded at 10 and 20 μl, respectively.
Collagen I was incubated in the presence or absence of 3DG in vitro. Calf skin collagen Type I (1.3 mg; Sigma) was incubated in 20 mM Na-phosphate buffer, pH 7.25, either alone, with 5 mM 3DG, or with 5 mM 3DG plus 10 mM arginine, in a total volume of 1 ml at 37° C. for 24 hours and then frozen and lyophilized. The residue was dissolved in 0.5 ml of 70% formic acid and cyanogen bromide was added (20:1, w/w). This solution was incubated at 30° C. for 18 hours. […] The extent of collagen crosslinking was determined by applying equal volumes of sample and analyzing by SDS-PAGE electrophoresis (16.5% Tris-tricine gel), as determined by the effects of 3DG on the migration of collagen.

3DG [2] = settings: Kappler et al., 2002; cited from earlier work
STZ-diabetic rats = experiment: Skin elasticity measurement (vacuum pull) in STZ-diabetic and normal rats; format: in vivo; settings: 50 mg/kg daily, eight weeks, p=0.39
Experimental: Experiments were performed to determine the effects of DYN 12 on the loss of skin elasticity associated with diabetes. To this end, two groups of STZ-diabetic rats and two groups of normal rats were subjected to treatment with DYN 12 or saline. One group of STZ-diabetic rats (n=9) received daily subcutaneous injections of DYN 12 at 50 mg/kg for eight weeks, as did one group of normal rats (n=6). A group of control diabetic rats (n=10) and a group of normal rats (n=6) received saline instead of DYN 12. One rat was removed from the diabetic DYN 12 group after 2 weeks because its blood glucose readings were inconsistent (too low) with other diabetic rats.
A non-invasive procedure based on CyberDERM, Inc. technology utilizing a skin elasticity measurement device was used to test the effects of DYN 12 treatment on skin elasticity. The procedure provides for non-invasive measurement of skin elasticity based upon the amount of vacuum pull required to displace skin. A suction cup probe is adhered to an area of shaved skin in order to form an airtight seal. Then, a vacuum is applied to the area of the skin inside the suction cup until the skin is displaced past a sensor located inside the probe. Accordingly, the more pressure that is required to displace the skin, the less elastic the skin is.

3DG [3] = experiment: Plasma 3DG levels in diabetic and non-diabetic rats; format: in vivo; settings: 50 mg/kg body weight injections in saline, within one week
Experimental: A cohort of twelve diabetic rats was divided into two groups of six. The first group received saline-only injections, and the second received injections of 3-O-methyl sorbitollysine (50 mg/kg body weight) in saline solution. The same procedure was conducted on a cohort of twelve non-diabetic rats.

diabetic rats = experiment: Skin elasticity/muscle strength measurement on alert, restrained rats; format: in vivo; settings: preliminary data
Experimental: FIG. 15 is graphic illustration of the effects of DYN 12 (3-O-methylsorbitollysine) treatment on skin elasticity. Diabetic or normal rats were treated with DYN 12 (50 mg/kg daily) or saline for eight weeks and then subjected to skin elasticity tests. The four groups used included diabetic controls (saline injection; solid black bar), diabetics treated with DYN 12 (open bar), normal animal controls (saline injections; stippled bar), and normal animals treated with DYN 12 (cross-hatched bar). Data are expressed in kilopascals (kPA) and are shown as averages of the results obtained with each particular group of test subjects. Measurements were taken on the hind leg of the test subjects and were taken on an alert animal restrained by a technician.
Skin elasticity measurements were also taken on the test subjects as described above, but without sedating the test animals before measurement. FIG. 15 illustrates skin elasticity measurements taken on the hind leg of the test subjects while the subjects were alert and being restrained by a technician.
In these experiments, the animals were fiercely fighting restraint and the results are different.

[4] = Locus of 3-O-methyl sorbitollysine uptake in vivo (tissues, urine, plasma); set-up: species or system rats
Experimental: […] Urine was collected for 3 hours, after which the rats were sacrificed. The tissues to be analyzed were removed and freeze clamped in liquid nitrogen. Perchloric acid extracts of the tissues were used for metabolite analysis. The tissues examined were taken from the brain, heart, muscle, sciatic nerve, spleen, pancreas, liver, and kidney. Plasma was also analyzed.

[5] = test system: kinase activity in the kidney cortex; experiment: Radioactive assay of FL3P production from FL and ATP; format: biochemical, pig; settings: 10 mM FL, 10 mM γ33P-ATP, 30 minutes at 37° C., pH 7.5
Experimental: A 3 g sample of fresh pig kidney cortex was homogenized in 9 ml of 50 mM Tris.HCl containing 150 mM KCl, 5 mM DTT, 15 mM MgCl2, pH 7.5. This was centrifuged at 10,000 g for 30 minutes, and then the supernatant was centrifuged at 100,000 g for 60 minutes. Ammonium sulfate was added to 60% saturation. After 1 hour at 4° C. the precipitate was collected by centrifugation and dissolved in 5 ml. of original buffer. A 2 ml aliquot of this solution was incubated with 10 mM ATP and 10 mM of FL (prepared as in Example 1, above) for 2 hours at 37° C. The reaction was quenched with 300 μl of perchloric acid, centrifuged to remove protein, and desalted on a column of Sephadex G 10 (5×10 cm). ^31P NMR analysis of the reaction mixture detected formation of FL3P.
Based on the proof of kinase activity thus obtained, a radioactive assay was developed. This assay was designed to take advantage of the binding to Dow-50 cation exchange resin by FL3P. This characteristic of FL3P was discovered during efforts to isolate it. […] A 0.5 ml volume of supernatant was pipetted into 10 ml of Ecoscint A and counted. […] The relationship between rates of FL3P production and enzyme concentration was determined using triplicate determinations with 1, 2, and 4 mg of protein for 30 minutes at 37° C. Blanks run concurrently without FL were subtracted and the data recorded. […]

[6] = set-up: species or system human; settings: in vivo
Experimental: 260 g of casein, 120 g of glucose and 720 ml of water were mixed to give a homogeneous mixture. This mixture was transferred to a metal plate and heated at 65° C. for 68 hours. The resulting cake was then pulverized to a coarse powder.
Volunteers spent two days on a fructoselysine-free diet and then consumed 22.5 g of the food product prepared as described herein, thus effectively receiving a 2 gram dose of fructoselysine. Urine was collected at 2 hour intervals for 14 hours and a final collection was made at 24 hours.
FL was measured by HPLC with a Waters 996 diode Array using a Waters C18 Free Amino Acid column at 46° C. and a gradient elution system of acetonitrile-methyl alcohol-water (45:15:40) into acetonitrile-sodium acetate-water (6:2:92) at 1 ml/min. Quantitation employed an internal standard of meglumine.
3DF was measured by HPLC after deionization of the sample. Analyses were performed on a Dionex DX-500 HPLC system employing a PA1 column (Dionex) and eluting with 32 mM sodium hydroxide at 1 ml/min. Quantitation was performed from standard curves obtained daily with synthetic 3DF.
3DG was measured by GC-MS after deionization of the sample. 3DG was derivatized with a 10-fold excess of diaminonaphthalene in PBS. […] Quantitation of 3DG employed selected ion monitoring using an internal standard of U-13C-3DG.

mouse mesangial cells = experiment: Type IV collagen production in kidney cells in vitro; format: cell-based
Experimental: Type IV collagen production was measured in mouse mesangial cells. Controls (grown with […]) produced 300 ng of Type IV collagen per 10,000 cells, whereas fructoselysine treated cells (5 or 10 mM fructoselysine with 10 mM glucose) produced 560 and 1100 ng/10,000 cells.

amadorase = experiment: Amadorase-dependent production of 3DG in vitro; format: biochemical; settings: FL 2.6 mM, after 24 hours
3-deoxyglucosone = experiment: Reduction of urinary and plasma 3-deoxyglucosone in rats after intraperitoneal injection; format: in vivo; settings: 10 μmols intraperitoneal, plasma at end of three hours vs before
Experimental: Urine was collected from six rats for three hours. A plasma sample was also obtained. The animals were then given 10 μmols of either sorbitollysine, mannitollysine, or galactitollysine by intraperitoneal injection. Urine was collected for another three hours, and a plasma sample obtained at the end of the three hours.
a. 3-deoxyglucosone was measured in the samples, as described in Example 5, below, and variable volumes were normalized to creatinine. The average reduction of urinary 3-deoxyglucosone was 50% by sorbitollysine, 35% by mannitollysine and 35% by galactitollysine. Plasma 3-deoxyglucosone was reduced 40% by sorbitollysine, 58% by mannitollysine and 50% by galactitollysine.
Three rats were treated as in b), immediately above, except meglumine (100 μmols) was injected intraperitoneally instead of the above-mentioned lysine derivatives. Three hours after the injection the average 3-deoxyglucosone concentrations in the urine were decreased 42%.
3DG was measured by GC-MS after deionization of the sample. 3DG was derivatized with a 10-fold excess of diaminonaphthalene in PBS. Ethyl acetate extraction gave a salt free fraction which was converted to the trimethyl silyl ethers with Tri-Sil (Pierce). Analysis was performed on a Hewlett-Packard 5890 selected ion monitoring GC-MS system. GC was performed on a fused silica capillary column (DB-5.25 mx.25 mm) using the following temperature program: injector port 250° C., initial column temperature 150° C. which is held for 1 minute, then increased to 290° C. at 16° C./minute and held for 15 minutes. Quantitation of 3DG employed selected ion monitoring using an internal standard of U-13C-3DG.

3DG [7] = settings: disclosed in WO 98/33492; cited from earlier work

Compound: O=CC(=O)C[C@H](O)[C@H](O)CO [3DG, 3-deoxyglucosone, reference compound]
collagen crosslinking (migration of collagen on gel) ([1]; collagen I with 5 mM 3DG): migrate as if it had a higher molecular weight

only tissue extract found to contain the compound ([4]; brain, heart, muscle, sciatic nerve, spleen, pancreas, liver, kidney examined 3 hours after i.p. injection): kidney
Compound: COC(C(O)CNCCCCC(N)C(=O)O)C(O)C(O)CO (centres unmarked) [DYN 12, 3-O-methylsorbitollysine]
3DG levels in the plasma of diabetic and non-diabetic animals (3DG [2]): reduces 3DG levels
elasticity value in treated diabetic rats compared with non-diabetic rats treated with saline (STZ-diabetic rats): not statistically different
plasma 3DG levels (3DG [3]; Diabetic rats): 0.44 ± 0.10 µM
plasma 3DG levels (3DG [3]; Non-diabetic rats): 0.13 ± 0.02 µM
muscle strength measured while alert, vs diabetic rats not so treated (diabetic rats): stronger muscle strength
total 3OMeSL recovered ([4]; individual rats, urine plus kidneys, 13500 nmols injected, listed as 3OMeSL, in nmol): 12355 and 5235 and 13011 and 8257 and 7151 and 7193
% 3OMeSL recovered ([4]; individual rats, urine plus kidneys, of injected dose, listed as 3OMeSL): 91.5% and 38.8% and 96.4% and 61.2% and 53.0% and 53.3%

approximate FL3P synthesis rate [5]: ~20 nmols/hr/mg protein
time of peak urinary 3DF excretion after the bolus [6]: about 4 hours
3DG (amadorase; Reaction 1: Amadorase +, ATP +): 1.58 mM
FL3P (amadorase; Reaction 1: Amadorase +, ATP +): 0.2 mM
3DG (amadorase; Reaction 2: Amadorase +, ATP −): 0.08 mM
FL3P (amadorase; Reaction 2: Amadorase +, ATP −): 0 mM
3DG (amadorase; Reaction 3: Amadorase −, ATP +): 0.09 mM
FL3P (amadorase; Reaction 3: Amadorase −, ATP +): 0 mM
3DG (amadorase; Reaction 4: Amadorase −, ATP −): 0.08 mM
FL3P (amadorase; Reaction 4: Amadorase −, ATP −): 0 mM
Compound: NC(CCCCNCC(=O)C(O)C(O)C(O)CO)C(=O)O (centres unmarked) [FL, 1-deoxy-1-(ε-aminolysine)-fructose]
Type IV collagen produced (mouse mesangial cells; 5 mM fructoselysine with 10 mM glucose): 560 ng/10,000 cells
Type IV collagen produced (mouse mesangial cells; 10 mM fructoselysine with 10 mM glucose): 1100 ng/10,000 cells

Compound: N=C(N)NCCC[C@H](N)C(=O)O [arginine]
inhibition of 3DG induced collagen crosslinking (high molecular weight bands on gel) ([1]; collagen I with 5 mM 3DG plus 10 mM arginine): fewer high molecular bands

Compound: N[C@@H](CCCCNC[C@H](O)[C@@H](O)[C@@H](O)[C@H](O)CO)C(=O)O [galactitollysine]
Plasma 3-deoxyglucosone reduced (3-deoxyglucosone): 50%
urinary or plasma 3DG (3DG [7]): can be reduced

Compound: N[C@@H](CCCCNC[C@@H](O)[C@@H](O)[C@H](O)[C@H](O)CO)C(=O)O [mannitollysine]
Plasma 3-deoxyglucosone reduced (3-deoxyglucosone): 58%
urinary or plasma 3DG (3DG [7]): can be reduced

Compound: CNC[C@H](O)[C@@H](O)[C@H](O)[C@H](O)CO [meglumine, reference compound]
urinary or plasma 3DG (3DG [7]): can be reduced

Compound: N[C@@H](CCCCNC[C@H](O)[C@@H](O)[C@H](O)[C@H](O)CO)C(=O)O [sorbitollysine]
Plasma 3-deoxyglucosone reduced (3-deoxyglucosone): 40%
urinary or plasma 3DG (3DG [7]): can be reduced
